One compound from US20210403874A1, “Method for Producing Stem/Precursor Cells, By Using Low Molecular Weight Compound, From Cells Derived From Endodermal Tissue or Organ” (Evia Life Sciences Inc., priority 2018, published 2021) can be followed below.

This test relates to pancreatic progenitor cells. The experiment in a line: Induction of differentiation from pancreatic progenitor cells into insulin-producing cells (floating culture). It counts as cell-based. Particulars: floating culture 7 days in the presence of YAC together with ALK5 inhibitor II, versus YAC; FIG. 6. As for the experimental part: Total RNA was isolated from the pancreatic exocrine cells and PSC cells using miRNeasy Mini Kit (QIAGEN). Reverse transcription reaction was carried out using High-Capacity cDNA Reverse Transcription Kit (Life Technologies) following the manufacturer's guideline. The resulting cDNA was used as a template to perform PCR with Platinum SYBR Green qPCR SuperMix UDG (Invitrogen). The expression level of the target gene was normalized with β-actin as the endogenous control.
The cells were fixed with 4% paraformaldehyde for 15 minutes. The resultant was incubated with a blocking solution (Blocking One) (Nacalai Tesque, Kyoto) at 4° C. for 30 minutes, and then the cells were incubated with primary antibody at room temperature for an hour or at 4° C. overnight. Then, Alexa Fluor 488- or Alexa Fluor 594-labeled secondary antibody (Life Technologies) was used to detect the primary antibody. The nuclei were co-stained with Hoechst 33342 (Dojindo).
The cells were suspended in 5% FBS-containing SHM+YAC (cell density: 1×10^4 to 1×10^6 cells/cm') and cultured on an ultra-low adsorption culture dish for 7 days. The medium was exchanged on the fourth day.

Consider `Cc1cccc(-c2[nH]ncc2-c2ccc3ncccc3n2)n1` [ALK5 inhibitor II], for which the “mRNA expression of Insulin and GLUT2” value is “further improvements”.
